Laboratory results: ChEMBL document CHEMBL5614376, “Discovery of MT-1207: A Novel, Potent Multitarget Inhibitor as a Promising Clinical Candidate for the Treatment of Hypertension” (J Med Chem, 2024)
The source made the active and inactive calls. The rule behind the calls is not given here.

Key:
Rattus norvegicus [1] = assay: Antihypertensive activity in 2K2C renovascular hypertensive Sprague-Dawley rat model assessed as systolic blood pressure at 20 mg/kg, po measured after 9 weeks (Rvb ~ 202 mmHg); format: functional
Rattus norvegicus [2] = assay: Effect on serum creatinine level in 2K2C renovascular hypertensive Sprague-Dawley rat model at 20 mg/kg, po measured after 9 weeks by biochemical analysis; format: functional, organism-based
Rattus norvegicus [3] = assay: Effect on serum urea level in 2K2C renovascular hypertensive Sprague-Dawley rat model at 20 mg/kg, po measured after 9 weeks by biochemical analysis; format: functional, organism-based
Rattus norvegicus [4] = assay: Effect on postural hypotension in Sprague-Dawley rat assessed as change in systolic blood pressure at 22 ug/kg, po treated for >30 mins followed by induction of postural hypotension measured 3 secs after postural change (reference value: 124 +/- 10 mmHg); format: functional; settings: dose 22 µg/kg, time > 30.05 min, 0.5008 h
Rattus norvegicus [5] = assay: Effect on postural hypotension in Sprague-Dawley rat assessed as change in systolic blood pressure at 22 ug/kg, po treated for >30 mins followed by induction of postural hypotension measured 60 secs after postural change (reference value: 127 +/- 10 mmHg); format: functional; settings: dose 22 µg/kg, time > 31 min
Rattus norvegicus [6] = assay: Effect on postural hypotension in Sprague-Dawley rat assessed as change in systolic blood pressure at 22 ug/kg, po treated for >30 mins followed by induction of postural hypotension measured 5 secs after postural change (reference value: 126 +/- 12 mmHg); format: functional; settings: dose 22 µg/kg, time > 30.08 min, 0.5013 h
Rattus norvegicus [7] = assay: Effect on postural hypotension in Sprague-Dawley rat assessed as change in systolic blood pressure at 22 ug/kg, po treated for >30 mins followed by induction of postural hypotension measured immediately after postural change (reference value: 131 +/- 9 mmHg); format: functional; settings: dose 22 µg/kg, 0.5 h
Rattus norvegicus [8] = assay: Effect on postural hypotension in Sprague-Dawley rat assessed as change in systolic blood pressure at 22 ug/kg, po treated for >30 mins followed by induction of postural hypotension measured 40 secs after postural change (reference value: 128 +/- 11 mmHg); format: functional; settings: dose 22 µg/kg, time > 30.67 min, 0.5112 h
Rattus norvegicus [9] = assay: Effect on postural hypotension in Sprague-Dawley rat assessed as change in systolic blood pressure at 22 ug/kg, po treated for >30 mins followed by induction of postural hypotension measured 10 secs after postural change (reference value: 127 +/- 12 mmHg); format: functional; settings: dose 22 µg/kg, time > 30.17 min, 0.5028 h
Rattus norvegicus [10] = assay: Effect on postural hypotension in Sprague-Dawley rat assessed as change in systolic blood pressure at 22 ug/kg, po treated for >30 mins followed by induction of postural hypotension measured 20 secs after postural change (reference value: 129 +/- 11 mmHg); format: functional; settings: dose 22 µg/kg, time > 30.33 min, 0.5055 h
[11] = biological target: T1, Alpha-1A adrenergic receptor (Homo sapiens) (UniProt P35348); assay: Displacement of [3H]prazosin from recombinant human alpha 1A adrenoceptor extracted from CHO cell membrane at 100 nM incubated for 60 mins by radioligand binding assay relative to control; format: cell membranes; settings: filed as antagonist
T1 sequence (whole entry): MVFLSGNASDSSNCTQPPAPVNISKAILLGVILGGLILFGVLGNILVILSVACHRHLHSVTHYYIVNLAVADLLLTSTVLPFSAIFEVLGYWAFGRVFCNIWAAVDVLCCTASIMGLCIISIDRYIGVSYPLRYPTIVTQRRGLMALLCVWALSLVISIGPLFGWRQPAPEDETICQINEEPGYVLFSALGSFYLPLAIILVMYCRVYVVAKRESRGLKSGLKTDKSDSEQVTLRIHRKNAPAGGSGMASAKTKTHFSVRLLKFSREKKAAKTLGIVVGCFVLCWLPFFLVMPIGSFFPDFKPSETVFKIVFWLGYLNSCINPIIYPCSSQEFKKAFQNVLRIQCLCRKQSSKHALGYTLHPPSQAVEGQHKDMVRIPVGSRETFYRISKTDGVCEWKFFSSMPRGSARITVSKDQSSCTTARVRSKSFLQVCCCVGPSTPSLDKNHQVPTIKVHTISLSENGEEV

[12] = biological target: T2, 5-hydroxytryptamine receptor 2A (Homo sapiens, UniProt P28223); assay: Displacement of [3H]Ketanserin from recombinant human 5-HT2A receptor extracted from CHO cell membrane at 10 nM incubated for 60 mins by radioligand binding assay relative to control; format: cell membranes; settings: filed as antagonist
[13] = biological target: T2, 5-hydroxytryptamine receptor 2A; assay: Displacement of [3H]Ketanserin from recombinant human 5-HT2A receptor extracted from CHO cell membrane at 1 nM incubated for 60 mins by radioligand binding assay relative to control; format: cell membranes
[14] = biological target: T1, Alpha-1A adrenergic receptor (Homo sapiens); assay: Displacement of [3H]prazosin from recombinant human alpha 1A adrenoceptor extracted from CHO cell membrane at 1 nM incubated for 60 mins by radioligand binding assay relative to control; format: cell membranes; settings: filed as antagonist
[15] = biological target: T2, 5-hydroxytryptamine receptor 2A; assay: Displacement of [3H]Ketanserin from recombinant human 5-HT2A receptor extracted from CHO cell membrane at 100 nM incubated for 60 mins by radioligand binding assay relative to control; format: cell membranes; settings: filed as antagonist
[16] = biological target: T1, Alpha-1A adrenergic receptor (Homo sapiens); assay: Displacement of [3H]prazosin from recombinant human alpha 1A adrenoceptor extracted from CHO cell membrane at 10 nM incubated for 60 mins by radioligand binding assay relative to control; format: cell membranes; settings: filed as antagonist

T2 sequence (P28223 whole entry): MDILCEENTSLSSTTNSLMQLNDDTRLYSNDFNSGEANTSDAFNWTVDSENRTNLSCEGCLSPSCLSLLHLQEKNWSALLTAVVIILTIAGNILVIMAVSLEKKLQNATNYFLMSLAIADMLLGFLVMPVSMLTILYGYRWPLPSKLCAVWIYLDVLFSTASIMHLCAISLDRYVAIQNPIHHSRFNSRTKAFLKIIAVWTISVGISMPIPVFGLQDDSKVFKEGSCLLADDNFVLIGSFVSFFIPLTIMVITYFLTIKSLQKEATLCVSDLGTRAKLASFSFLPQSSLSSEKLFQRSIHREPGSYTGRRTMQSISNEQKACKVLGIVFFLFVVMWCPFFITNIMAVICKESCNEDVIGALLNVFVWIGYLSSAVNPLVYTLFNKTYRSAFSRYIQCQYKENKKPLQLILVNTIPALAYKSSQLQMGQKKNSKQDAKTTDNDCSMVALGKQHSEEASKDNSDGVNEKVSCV

| Compound | inhibition [11] | inhibition [12] | inhibition [13] | inhibition [14] | inhibition [15] | inhibition [16] | Activity (Rattus norvegicus [1]) | Activity (Rattus norvegicus [2]) | Activity (Rattus norvegicus [3]) | Activity (Rattus norvegicus [4]) | Activity (Rattus norvegicus [5]) | Activity (Rattus norvegicus [6]) | Activity (Rattus norvegicus [7]) | Activity (Rattus norvegicus [8]) | Activity (Rattus norvegicus [9]) | Activity (Rattus norvegicus [10]) |
| --- | --- | --- | --- | --- | --- | --- | --- | --- | --- | --- | --- | --- | --- | --- | --- | --- |
| CCCCc1nc(Cl)c(CO)n1Cc1ccc(-c2ccccc2-c2nnn[nH]2)cc1 [LOSARTAN] |  |  |  |  |  |  | 176 mmHg | Active | Active |  |  |  |  |  |  |  |
| COc1cc2nc(N3CCN(C(=O)c4ccco4)CC3)nc(N)c2cc1OC [PRAZOSIN] |  |  |  |  |  |  |  |  |  | 81 mmHg | 74 mmHg | 77 mmHg | 95 mmHg | 74 mmHg | 75 mmHg | 75 mmHg |
| c1ccc2nn(CCCCN3CCN(c4nsc5ccccc45)CC3)nc2c1 | 100% | 78.3% | -9.49% | 68.8% | 101% | 96.2% |  |  |  |  |  |  |  |  |  |  |

Continued, in another order:

| inhibition [11] | inhibition [12] | inhibition [13] | inhibition [14] | inhibition [15] | inhibition [16] | Compound | Activity (Rattus norvegicus [1]) | Activity (Rattus norvegicus [2]) | Activity (Rattus norvegicus [3]) | Activity (Rattus norvegicus [4]) | Activity (Rattus norvegicus [5]) | Activity (Rattus norvegicus [6]) | Activity (Rattus norvegicus [7]) | Activity (Rattus norvegicus [8]) | Activity (Rattus norvegicus [9]) | Activity (Rattus norvegicus [10]) |
| --- | --- | --- | --- | --- | --- | --- | --- | --- | --- | --- | --- | --- | --- | --- | --- | --- |
| 99.9% | 76% | 15.9% | 69.7% | 94.2% | 97.5% | Fc1ccc2c(C3CCN(CCCn4cnc5ccccc54)CC3)noc2c1 |  |  |  |  |  |  |  |  |  |  |
| 100% | 87.3% | 24.9% | 52.8% | 98% | 98.4% | Fc1ccc2c(N3CCN(CCCn4cnc5ccccc54)CC3)noc2c1 |  |  |  |  |  |  |  |  |  |  |
| 99.9% | 82% | -5.42% | 83.4% | 98.9% | 99.9% | Fc1ccc2c(C3CCN(CCCCn4nc5ccccc5n4)CC3)noc2c1 |  |  |  |  |  |  |  |  |  |  |
